Experimental findings from US11402382B2, “Diagnostic and therapeutic methods for cancer” (Genentech, Inc., priority 2017, dated 2022) are described below.

Test [1] has as its system immune and vasculature markers in mRCC tumor sections. The test is described as follows: Phase Ib tumor immunohistochemistry (CD34/αSMA, CD8, Ki67/CD8, MHC-I, PD-L1). The test is classed as in vivo, human. How it is done:
Formalin-fixed, paraffin-embedded (FFPE) tissue sections of 4 μm thickness were stained for PD-L1 with an anti-human PD-L1 rabbit monoclonal antibody (clone SP142; Ventana, Tucson, Ariz.) on an automated staining platform (BenchMark; Ventana) using a concentration of […], with signal visualization by diaminobenzidine; sections were counter-stained with haematoxylin. PD-L1 expression was evaluated on tumor cells and tumor-infiltrating immune cells. […] For tumor-infiltrating immune cells, the percentage of PD-L1-positive tumor-infiltrating immune cells occupying the tumor was determined. […] Specimens were scored as IHC 0, 1, 2, or 3 if <1%, ≥1% but <5%, ≥5% but <10%, or ≥10% of cells per area were PD-L1 positive, respectively. […]
All MHC-I IHC steps were carried out on the Ventana Discovery XT automated platform (Ventana Medical Systems; Tucson, Ariz.). […] Bound primary antibody was detected by the OMNIMAP™ anti-rabbit HRP detection kit, followed by DAB (Ventana Medical Systems; Tucson, Ariz.). […] MHC-I staining in tumor cells was scored using an H-score system. […] Relative to the overall tumor area, the percentage of cells at different staining intensities was determined by visual assessment. […] Cases were scored by two independent pathologists. […]

The subject of test [2] is vascular signature, Th1 chemokine, CD8 T-effector and NK cell genes in mRCC tumor biopsies. The test is described as follows: Phase Ib tumor biopsy gene expression analysis (Fluidigm PCR panel, NanoString panel). It is filed as in vivo, human. How it is done:
RNA isolation was performed as described by Schleifman et al. (PLoS One 8:e74231, 2014). Briefly, tumor FFPE sections were macro dissected to enrich for neoplastic tissue, and tissue was lysed using tumor lysis buffer and Proteinase K to allow for complete digestion and release of nucleic acids. RNA was isolated using the High Pure FFPE RNA Micro Kit (Roche Applied Sciences, Indianapolis, Ind.) according to the manufacturer's protocol. DNA was isolated using the QIAAMP® DNA FFPE Tissue Kit (Qiagen, Hilden, Germany) according to the manufacturer's protocol. RNA and DNA were stored at 280 uC until the analyses were performed.
Gene-expression analysis was performed using the BioMark HD™ real-time PCR Platform (Fluidigm) as described by Schleifman et al. (PLoS One 8:e74231, 2014). All TAQMAN® assays in the expression panel used FAM™ dye-labeled TAQMAN® minor groove binder (MGB) probes and ordered through Life Technologies either made-to-order or custom-designed, including four reference genes: SP2, GUSB, TMEM55B and VPS33B. A geometric median of the Ct values for the four reference genes (SP2, GUSB, TMEM55B and VPS33B) was calculated for each sample, and expression levels were determined using the delta Ct (ΔCt) method as follows: Ct (target Gene)2GeoMedian Ct (reference genes). Median mRNA expression levels (as measured by immunochip (iChip)) across patients on study were used as cutoffs to derive high- versus low-expression categorization. P values were determined by t test.
NanoString gene expression data were processed using the R/Bioconductor package “NanoStringQCPro.” Raw counts were adjusted by positive control counts before probe- and lane-specific background was calculated based on both negative controls and blank measurements. After background correction, counts were log2 transformed and normalized by housekeeping gene expression (TMEM55B, VPS33B, TBP, and TUBB).
In addition to safety, tolerability, and clinical activity, one key objective of the phase Ib study described above was to evaluate the mechanism of combination activity. The trial design included a run-in period with bevacizumab to specifically interrogate the effects of bevacizumab on the local tumor immune microenvironment, followed by combination therapy with immune checkpoint blockade using atezolizumab. Tumor biopsies and blood were collected prior to treatment, 15-18 days following bevacizumab, and 4-6 weeks after the atezolizumab and bevacizumab combination treatment had been initiated.
To identify tumor markers associated with bevacizumab monotherapy or combination therapy, gene expression analysis was performed using both a 90 gene PCR-based Fluidigm panel and an 800 gene custom NanoString panel. […]

On to “bevacizumab: recombinant humanized anti-VEGF monoclonal antibody, also known as rhuMAb VEGF or AVASTIN®”, for which, in test [1] (immature or unstable vessels (CD34+/αSMA−)), the “effect on vessels, dual staining of CD34 with αSMA” value is on record as “primarily affected”. Besides, the MHC-I staining result in test [1] (on-treatment tumor vs pre-treatment) is on record as “increase”. For the same substance, in test [2] (both on-treatment time points vs pre-treatment, all patients), the “expression of genes associated with the neo-vasculature (VEGF downstream signaling)” value is listed as “significantly decreased”. Also, the “VEGF transcript expression in tumors” value in test [2] (normalized to housekeeping gene expression, FIG. 11) is recorded as “upregulation”. For the same substance, the “consistent changes in FasL gene expression” value in test [2] (on-treatment tumor) is “not observed”. Also, in test [2] (six patients with paired biopsies), the “patients showing a significant increase in gene signatures related to Th1 signaling” value is on record as “four of the six”.
